Test results taken from PubChem BioAssay AID2060609 (Molecular Pharmacology Branch, DTP, NCI, 2025).
pIC50: −log10 of the molar value.

System: 855422-203-R-J1-PDC complex spheroids, viability
Experiment: Anticancer human tumor 855422-203-R-J1-PDC patient-derived bladder carcinoma cell line growth inhibition [CLK]
Settings: for pIC50: curve of first compound; for viability, T/C: stronger effect = lower value
Procedure, shortened: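 Patient-derived tumor cells grown as complex spheroids with HUVEC endothelial cells and mesenchymal stem cells, treated with drug combinations. Concentrations descend in half-log steps from near clinical Cmax, or from 10 microM if Cmax unknown.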

[1] = second compound 0.0316 µM, first compound 0.0316 µM
[2] = second compound 0.0316 µM, first compound 0.1 µM
[3] = second compound 0.0316 µM, first compound 0.316 µM
[4] = second compound 0.0316 µM, first compound 1 µM
[5] = second compound 0.0316 µM, first compound 3.16 µM
[6] = second compound 0.0316 µM, first compound 10 µM
[7] = second compound 0.1 µM, first compound 0.0316 µM
[8] = second compound 0.1 µM, first compound 0.1 µM
[9] = second compound 0.1 µM, first compound 0.316 µM
[10] = second compound 0.1 µM, first compound 1 µM
[11] = second compound 0.1 µM, first compound 3.16 µM
[12] = second compound 0.1 µM, first compound 10 µM
[13] = second compound 0.316 µM, first compound 0.0316 µM
[14] = second compound 0.316 µM, first compound 0.1 µM
[15] = second compound 0.316 µM, first compound 0.316 µM
[16] = second compound 0.316 µM, first compound 1 µM
[17] = second compound 0.316 µM, first compound 3.16 µM
[18] = second compound 0.316 µM, first compound 10 µM
[19] = second compound 1 µM, first compound 0.0316 µM
[20] = second compound 1 µM, first compound 0.1 µM
[21] = second compound 1 µM, first compound 0.316 µM
[22] = second compound 1 µM, first compound 1 µM
[23] = second compound 1 µM, first compound 3.16 µM
[24] = second compound 1 µM, first compound 10 µM
[25] = second compound 3.16 µM, first compound 0.0316 µM
[26] = second compound 3.16 µM, first compound 0.1 µM
[27] = second compound 3.16 µM, first compound 0.316 µM
[28] = second compound 3.16 µM, first compound 1 µM
[29] = second compound 3.16 µM, first compound 3.16 µM
[30] = second compound 3.16 µM, first compound 10 µM
[31] = second compound 10 µM, first compound 0.0316 µM
[32] = second compound 10 µM, first compound 0.1 µM
[33] = second compound 10 µM, first compound 0.316 µM
[34] = second compound 10 µM, first compound 1 µM
[35] = second compound 10 µM, first compound 3.16 µM
[36] = second compound 10 µM, first compound 10 µM
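Also: spheroids exposed to drugs for seven days before readout.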
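For viability, T/C in this document: 100% = DMSO vehicle control wells.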

CC(=O)O[C@H]1C(=O)[C@@]2(C)[C@H]([C@H](OC(=O)c3ccccc3)[C@]3(O)C[C@H](OC(=O)[C@H](O)[C@@H](NC(=O)c4ccccc4)c4ccccc4)C(C)=C1C3(C)C)[C@]1(OC(C)=O)CO[C@@H]1C[C@@H]2O + CN1CCN(c2cc(C(=O)Nc3cc4cc(-c5cnn(C)c5)ccc4cn3)ccn2)CC1
pIC50 (second compound 0.0316 µM): > 7.50
pIC50 (second compound 0.1 µM): > 7.50
pIC50 (second compound 0.316 µM): > 7.50
pIC50 (second compound 1 µM): > 7.50
pIC50 (second compound 3.16 µM): > 7.50
pIC50 (second compound 10 µM): > 7.50
viability, T/C [1]: 8.75%
viability, T/C [2]: 7.02%
viability, T/C [3]: 5.26%
viability, T/C [4]: 9.34%
viability, T/C [5]: 9.46%
viability, T/C [6]: 10.8%
viability, T/C [7]: 8.5%
viability, T/C [8]: 7.8%
viability, T/C [9]: 6.23%
viability, T/C [10]: 6.41%
viability, T/C [11]: 8.14%
viability, T/C [12]: 8.37%
viability, T/C [13]: 4.94%
viability, T/C [14]: 5.41%
viability, T/C [15]: 5.22%
viability, T/C [16]: 4.69%
viability, T/C [17]: 4.5%
viability, T/C [18]: 5.61%
viability, T/C [19]: 0.21%
viability, T/C [20]: 0.19%
viability, T/C [21]: 0.18%
viability, T/C [22]: 1.39%
viability, T/C [23]: 1.11%
viability, T/C [24]: 0.14%
viability, T/C [25]: 0.45%
viability, T/C [26]: 0.41%
viability, T/C [27]: 0.38%
viability, T/C [28]: 0.39%
viability, T/C [29]: 0.32%
viability, T/C [30]: 0.37%
viability, T/C [31]: 1.12%
viability, T/C [32]: 0.73%
viability, T/C [33]: 0.33%
viability, T/C [34]: 1.28%
viability, T/C [35]: 0.43%
viability, T/C [36]: 2.45%

CCc1c2c(nc3ccc(O)cc13)-c1cc3c(c(=O)n1C2)COC(=O)[C@]3(O)CC + CN1CCN(c2cc(C(=O)Nc3cc4cc(-c5cnn(C)c5)ccc4cn3)ccn2)CC1
pIC50 (second compound 0.0316 µM): 8.37
pIC50 (second compound 0.1 µM): > 8.50
pIC50 (second compound 0.316 µM): > 8.50
pIC50 (second compound 1 µM): > 8.50
pIC50 (second compound 3.16 µM): > 8.50
pIC50 (second compound 10 µM): > 8.50
viability, T/C (second compound 0.0316 µM, first compound 0.00316 µM): 61.9%
viability, T/C (second compound 0.0316 µM, first compound 0.01 µM): 14.1%
viability, T/C [1]: 11.2%
viability, T/C [2]: 5.5%
viability, T/C [3]: 3.03%
viability, T/C [4]: 2.59%
viability, T/C (second compound 0.1 µM, first compound 0.00316 µM): 24.7%
viability, T/C (second compound 0.1 µM, first compound 0.01 µM): 12.1%
viability, T/C [7]: 7.5%
viability, T/C [8]: 4.65%
viability, T/C [9]: 3.59%
viability, T/C [10]: 1.4%
viability, T/C (second compound 0.316 µM, first compound 0.00316 µM): 5.85%
viability, T/C (second compound 0.316 µM, first compound 0.01 µM): 5.41%
viability, T/C [13]: 5.45%
viability, T/C [14]: 1.97%
viability, T/C [15]: 0.54%
viability, T/C [16]: 0.17%
viability, T/C (second compound 1 µM, first compound 0.00316 µM): 1.09%
viability, T/C (second compound 1 µM, first compound 0.01 µM): 0.16%
viability, T/C [19]: 0.3%
viability, T/C [20]: 0.23%
viability, T/C [21]: 0.15%
viability, T/C [22]: 0.33%
viability, T/C (second compound 3.16 µM, first compound 0.00316 µM): 0.33%
viability, T/C (second compound 3.16 µM, first compound 0.01 µM): 0.52%
viability, T/C [25]: 0.44%
viability, T/C [26]: 0.3%
viability, T/C [27]: 0.46%
viability, T/C [28]: 0.23%
viability, T/C (second compound 10 µM, first compound 0.00316 µM): 0.38%
viability, T/C (second compound 10 µM, first compound 0.01 µM): 0.17%
viability, T/C [31]: 0.26%
viability, T/C [32]: 2.2%
viability, T/C [33]: 2.67%
viability, T/C [34]: 0.19%

O=c1[nH]cc(F)c(=O)[nH]1 + CN1CCN(c2cc(C(=O)Nc3cc4cc(-c5cnn(C)c5)ccc4cn3)ccn2)CC1
pIC50 (second compound 0.0316 µM): 5.42
pIC50 (second compound 0.1 µM): 5.47
pIC50 (second compound 0.316 µM): > 7.50
pIC50 (second compound 1 µM): > 7.50
pIC50 (second compound 3.16 µM): > 7.50
pIC50 (second compound 10 µM): > 7.50
viability, T/C [1]: 109%
viability, T/C [2]: 102%
viability, T/C [3]: 96.8%
viability, T/C [4]: 64.4%
viability, T/C [5]: 56.9%
viability, T/C [6]: 41.1%
viability, T/C [7]: 82.2%
viability, T/C [8]: 90.6%
viability, T/C [9]: 85.6%
viability, T/C [10]: 68.1%
viability, T/C [11]: 52.4%
viability, T/C [12]: 39.7%
viability, T/C [13]: 10.1%
viability, T/C [14]: 12.3%
viability, T/C [15]: 9.14%
viability, T/C [16]: 11.6%
viability, T/C [17]: 14.1%
viability, T/C [18]: 6.87%
viability, T/C [19]: 0.14%
viability, T/C [20]: 0.18%
viability, T/C [21]: 0.21%
viability, T/C [22]: 0.12%
viability, T/C [23]: 0.19%
viability, T/C [24]: 0.15%
viability, T/C [25]: 0.72%
viability, T/C [26]: 0.53%
viability, T/C [27]: 0.97%
viability, T/C [28]: 0.5%
viability, T/C [29]: 1.23%
viability, T/C [30]: 0.45%
viability, T/C [31]: 0.21%
viability, T/C [32]: 0.23%
viability, T/C [33]: 0.37%
viability, T/C [34]: 0.21%
viability, T/C [35]: 0.32%
viability, T/C [36]: 0.2%
